Test results from patent US8697636B2 (priority 2007, dated 2014).
In brackets after ≈: the same amount, converted by molar mass.

Legend:
C. perfringens = assay: microbe, parasite or virus in culture; type: cell-based; conditions: Clostridium perfringens, read-out: minimum inhibitory concentration
[1] = tested on: pathogenic Clostridium sp.; conditions: cited from earlier work

Molecule: Cc1ncc([N+](=O)[O-])n1CCO [metronidazole]
- MIC (C. perfringens): 25 mg/L (≈ 146 µM)

Molecule: ruminococcin A
- activity against pathogenic Clostridium sp. [1]: active
